What is called MIC is the lowest concentration that inhibits growth of the organism. As usually defined, the MBC is the lowest tested concentration that kills the bacteria rather than only halting them.

The text below walks through data of patent US20050043369A1, “Bactericidal antimicrobial methods and compositions for use in treating gram positive infections” (Protez Pharmaceuticals Inc., priority 2000, published 2005).

Where two headings read alike, the source gives them in different places.

Assay [1] has as its system S. aureus (SA1199). The assay can be described thus: Time kill studies (CFU counts). The assay is classed as cell-based, Staphylococcus aureus. The following applies: antibiotic 1×MIC + 5 μg/ml INF 401. On the procedure: FIG. 5A, FIG. 5B and FIG. 5C. […]
The initial inoculum number was determined by plating an appropriate dilution on LB agar plates and determining the number of colony forming units (CFUs). At different time points an aliquot was withdrawn from each tube and cell viability was determined by plating an appropriate dilution and counting CFUs after overnight incubation.

In assay [2] the test system is S. aureus strain ATTC 29213. Put plainly: Characterization of killing by INF 401 plus chloramphenicol (viability, morphology, protein, DNA, metal dependence). The assay is classed as cell-based, Staphylococcus aureus. The following applies: chloramphenicol 20 μg/ml or INF 401 2 μg/ml alone.
Description: Time kill study of the effect of NF 401 in combination with chloramphenicol. Exponentially growing cells (S. aureus strain 29213) were diluted to OD600 0.1 in LB supplemented with 20 μg/ml of chloramphenicol (Cm) in the presence or absence of INF 401 (2 μg/ml) and incubated with shaking at 37° C. At indicated time points cells were harvested, washed with LB and plated on LB agar plates. Number of colony forming units (CFUs) was determined after overnight incubation.
Time kill study of the effect of iron on the bactericidal activity of INF 401. S. aureus strain 29213 was grown overnight in iron-limited Staphylococcal Siderophore Detection (SSD) medium (Heinrichs, 1999) supplemented with 2 μM FeCl3, washed with SSD and diluted 1:100 into the fresh medium containing 0, 2 or 50 μm FeCl3. Exponentially growing cells were diluted to OD600 0.01 in the corresponding medium supplemented when indicated with 20 μg/ml of chloramphenicol (Cm) and 2 μg/ml of INF 401. At 0, 1, 2 and 3.5 hours cells were plated in different dilutions to the LB agar plates and number of colony forming units (CFUs) was counted next day.
The test system of assay [3] is S. aureus SA 29213. Put plainly: 55Fe transport assay (intracellular iron accumulation). The assay is classed as cell-based, Staphylococcus aureus. The following applies: LB, ^55FeCl3 30 min 37° C.; chloramphenicol alone or INF 401 in absence of antibiotic. On the procedure: Next, investigated was whether INF 401 affects intracellular iron accumulation. An ^55Fe transport assay (modified from Sebulsky, 2000) was used to examine the ability of INF 401 to transport iron inside the cell. Briefly, exponentially growing cells were diluted to OD600 0.1 in LB, incubated with ^55FeCl3 for 30 min at 37° C., washed and counted in scintillation fluid using the tritium channel of a scintillation system. […] However, the presence of INF 401 in either the absence or presence of antibiotic led to a dramatic increase in iron accumulation (209,215 and 231,621 DPM, respectively).
Activity of the compound is depicted as the minimal concentration required to kill 99.9% of S. aureus in the presence of 4 μg/ml erythromycin.

Assay [4] has as its system S. pneumoniae. The assay can be described thus: Bactericidal activity (MBC) of translational inhibitors with or without INF 401 in S. pneumoniae. The assay is classed as cell-based, Streptococcus pneumoniae. The following applies: antibiotic alone. From the text: It would be desirable that an antibiotic potentiator of the present invention is active not only in S. aureus but also in other bacterial pathogens. The inventors have begun studies to investigate whether INF 401 can also potentiate the activity of translational inhibitors in another Gram positive pathogen, S. pneumoniae.

Assay [5] has as its system S. aureus SA1199. The assay can be described thus: Checkerboard two-fold broth microdilution, MIC and MBC. The assay is classed as cell-based, Staphylococcus aureus. The following applies: Table 2, plus 10 μg/ml INF 402, unit not given. In general terms: Dilution methods test growth across graded concentrations, often in twofold steps.
Assay [6] has as its system S. aureus SA1199. Described as above. It is filed as cell-based, Staphylococcus aureus. The following applies: for MBC: antibiotic alone. On the procedure: Checkerboard titration was performed with INF 401 and erythromycin to quantitate the effects of the combination on Staphylococcal growth using two-fold serial broth microdilution. After overnight incubation, cells were transferred to fresh medium, as described above, to determine those combinations that were bactericidal to S. aureus. […] Although not determined according to NCCLS recommended procedures ([…]), the inventors considered this the Minimal Bactericidal Concentration (MBC).
The inventors next evaluated whether INF 401 was bactericidal in combination with other protein synthesis inhibitors which are bacteriostatic to S. aureus. Checkerboard studies were performed with two-fold dilutions of each antibiotic in combination with INF 401 using the assay described above in Example 2. After overnight incubation the MIC of each antibiotic was determined by visualization of bacterial growth. […] The MBC of each antibiotic was determined as described in Example 2 in the absence or presence of INF 401.

For assay [7], the system named is S. aureus (SA1199). Particulars: vancomycin; Jeffrey et al., 1999; cited from earlier work.

For the molecule `O=C(N[C@H](CO)[C@H](O)c1ccc([N+](=O)[O-])cc1)C(Cl)Cl` [Chloramphenicol], the “reduction in cell viability, antibiotic in combination with INF 401” value in assay [1] was 3 log10. Besides, in assay [2], the “effect of single agent on DNA integrity” value was “did not affect DNA integrity”. Besides, the “amount of ^55Fe accumulated by cells, single agent” value in assay [3] was 4,976 DPM. In assay [4], the “bactericidal concentration in the absence of INF 401 as multiple of MIC” value is 2 ×MIC. For the same molecule, the “MBC^b = MBC in the presence of 10 μg/ml of INF 402” value in assay [5] turned out to be 8. In addition, the minimum inhibitory concentration (MIC) came to 8 µg/mL in assay [6] (Staphylococcus aureus, SA1199) and 8 µg/mL in assay [6] (Table 2, S. aureus SA1199, unit inferred). The MBC in assay [6] (Staphylococcus aureus, SA1199, read-out: MBC^a = MBC in the absence of INF 401, Table 1, S. aureus SA1199, unit inferred) is over 64 µg/mL; in assay [6] (Staphylococcus aureus, SA1199, read-out: MBC^a = MBC in the absence of INF 401, Table 2, S. aureus SA1199, unit inferred), over 64 µg/mL. In addition, the “MBC^b = MBC in the presence of 5 μg/ml of INF 401” value in assay [6] (Table 1, S. aureus SA1199, plus 5 μg/ml INF 401, unit not given) amounted to 4.
`CN[C@H](CC(C)C)C(=O)N[C@H]1C(=O)N[C@@H](CC(N)=O)C(=O)N[C@H]2C(=O)N[C@H]3C(=O)N[C@H](C(=O)N[C@H](C(=O)O)c4cc(O)cc(O)c4-c4cc3ccc4O)[C@H](O)c3ccc(c(Cl)c3)Oc3cc2cc(c3O[C@@H]2O[C@H](CO)[C@@H](O)[C@H](O)[C@H]2O[C@H]2C[C@](C)(N)[C@H](O)[C@H](C)O2)Oc2ccc(cc2Cl)[C@H]1O` [vancomycin]: the “time to decrease the viability of S. aureus by 1000-fold” value in assay [7] is 4 to 8 h.
